The compounds below were run on Arabidopsis thaliana (assay: Herbicidal activity against Arabidopsis thaliana after 3 weeks).
Type: functional
With `CSCCC1NC(=O)NC1CCCCCC(=O)O` (stereo not given) the GR50 was over 780 ppm. Compound `CCC(N)C(=O)CCCCCC(=O)O.Cl` (stereo not given) has a GR50 of 43 ppm. In the case of `Cl.NC/C(CCCCCC(=O)O)=N/O`, the GR50 is reported as 40 ppm. `COC(=O)CCCCCC1NC(=S)NC1CCSC` (stereo not given) gave a GR50 of over 780 ppm. With `CC(C)C(N)/C(CCCCCC(=O)O)=N/O.Cl` (stereo not given) the GR50 was over 780 ppm. For `CCC(N)C(N)CCCCCC(=O)O.Cl.Cl` (stereo not given), the GR50 was 76 ppm. `COC(=O)CCCCC/C(CN)=N\O.Cl` was tested, and the GR50 was 53 ppm. Work on `CCC(N)/C(CCCCCC(=O)O)=N/O.Cl` (stereo not given) yielded a GR50 of over 780 ppm. Compound `CC(O)C(N)C(=O)CCCCCC(=O)O.Cl` (stereo not given) has a GR50 of 250 ppm. `CCC1NC(=O)NC1CCCCCC(=O)O` (stereo not given) gave a GR50 of 35 ppm. `O=C(O)CCCCCC1CNC(=O)N1` (racemic) gave a GR50 of 35 ppm. For `Cl.NC(CS)C(=O)CCCCCC(=O)O` (stereo not given), the GR50 was over 780 ppm. `CSCC(N)C(=O)CCCCCC(=O)O.Cl` (stereo not given) showed a GR50 of over 780 ppm. `CSCCC(N)C(N)CCCCCC(=O)O.Cl.Cl` (stereo not given) showed a GR50 of 0.78 ppm. `COC(=O)CCCCCC1NC(=S)NC1CSC` (stereo not given) showed a GR50 of 44 ppm. `COC(=O)CCCCCC(=O)C(N)CS.Cl` (stereo not given) was tested, and the GR50 was 120 ppm. Compound `CSCCC(N)C(=O)CCCCCC(=O)O.Cl` (stereo not given) has a GR50 of over 780 ppm. Compound `Cl.NC(CO)C(=O)CCCCCC(=O)O` (stereo not given) has a GR50 of 100 ppm. Compound `CSCC1NC(=O)NC1CCCCCC(=O)O` (stereo not given) has a GR50 of 46 ppm. For `COC(=O)CCCCCC(=O)C(N)CO.Cl` (stereo not given), the GR50 was 53 ppm. In the case of `Cl.NCC(=O)CCCCCC(=O)O`, the GR50 is reported as 8 ppm. With `Cl.Cl.NCC(N)CCCCCC(=O)O` (stereo not given) the GR50 was 53 ppm. `COC(=O)CCCCCC(=O)C(N)CSC.Cl` (stereo not given) showed a GR50 of 250 ppm. For `COC(=O)CCCCCC(=O)C(N)C(C)O.Cl` (stereo not given), the GR50 was 100 ppm. `CC(C)C(N)C(=O)CCCCCC(=O)O.Cl` (stereo not given) gave a GR50 of 37 ppm.

From ChEMBL document CHEMBL3046357, “Inhibitors of biotin biosynthesis as potential herbicides” (2004)
